# ChEMBL document CHEMBL1909046, “DrugMatrix in vitro pharmacology data”
# pIC50: −log10 of the molar value.
# Target: T1, Alpha-2A adrenergic receptor (Homo sapiens, UniProt P08913); further: in other assays of this panel Not Active means under 50% inhibition at 10 µM
# T1 sequence (P08913 whole entry): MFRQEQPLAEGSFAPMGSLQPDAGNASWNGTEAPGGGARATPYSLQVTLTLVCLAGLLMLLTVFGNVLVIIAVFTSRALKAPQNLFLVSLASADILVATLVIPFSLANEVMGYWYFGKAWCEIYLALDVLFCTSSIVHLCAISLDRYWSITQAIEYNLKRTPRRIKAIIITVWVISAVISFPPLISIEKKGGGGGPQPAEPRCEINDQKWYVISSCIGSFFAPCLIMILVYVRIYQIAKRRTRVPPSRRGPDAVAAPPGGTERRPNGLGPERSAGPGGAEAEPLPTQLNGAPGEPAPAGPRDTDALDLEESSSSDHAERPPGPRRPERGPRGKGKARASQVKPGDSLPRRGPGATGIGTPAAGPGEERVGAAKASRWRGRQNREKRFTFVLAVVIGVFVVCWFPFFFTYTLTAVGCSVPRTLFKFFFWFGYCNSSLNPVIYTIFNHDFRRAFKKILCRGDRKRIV
# Assay: not given
# Assay type: cell membranes, Sf9, Membrane
# Settings: sf9
row,Compound,IC50
1,O=C1c2c(O)ccc(O)c2C(=O)c2c(NCCNCCO)ccc(NCCNCCO)c21 [MITOXANTRONE],Not Active
2,CC(C)(C)NC(=O)[C@@H]1CN(Cc2cccnc2)CCN1C[C@@H](O)C[C@@H](Cc1ccccc1)C(=O)N[C@H]1c2ccccc2C[C@H]1O.O,Not Active

# Target: Beta-2 adrenergic receptor (Homo sapiens, UniProt P07550)
# Sequence (P07550 whole entry): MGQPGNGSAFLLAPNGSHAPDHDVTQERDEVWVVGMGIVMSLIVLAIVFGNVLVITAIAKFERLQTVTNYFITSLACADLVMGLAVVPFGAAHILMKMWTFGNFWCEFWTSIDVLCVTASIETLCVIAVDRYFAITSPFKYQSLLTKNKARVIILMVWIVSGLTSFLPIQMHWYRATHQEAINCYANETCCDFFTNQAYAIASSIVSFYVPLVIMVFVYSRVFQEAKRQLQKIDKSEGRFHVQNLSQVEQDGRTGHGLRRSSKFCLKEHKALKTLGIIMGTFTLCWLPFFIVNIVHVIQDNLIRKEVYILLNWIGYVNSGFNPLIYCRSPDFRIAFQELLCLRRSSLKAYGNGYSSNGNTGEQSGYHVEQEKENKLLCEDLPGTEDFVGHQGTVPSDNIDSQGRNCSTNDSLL
# Assay: DRUGMATRIX: Adrenergic beta2 radioligand binding (ligand: [3H] CGP-12177)
# Assay type: cell membranes, Membrane
# Settings: cho; Not Active = under 50% inhibition at 10 µM
row,Compound,IC50
1,O=C1c2c(O)ccc(O)c2C(=O)c2c(NCCNCCO)ccc(NCCNCCO)c21 [MITOXANTRONE],Not Active
2,CC(C)(C)NC(=O)[C@@H]1CN(Cc2cccnc2)CCN1C[C@@H](O)C[C@@H](Cc1ccccc1)C(=O)N[C@H]1c2ccccc2C[C@H]1O.O,Not Active

# Target: Aldo-keto reductase family 1 member B1 (Rattus norvegicus, UniProt P07943);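 further: inhibition of aldose reductase enzyme activity, measured with DL-glyceraldehyde as the substrate; in other assays of this panel Not Active means under 50% inhibition at 10 µM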
# Assay: not given
# Assay type: tissue-based, Lens of camera-type eye
# Settings: not given
row,Compound,IC50
1,O=C1c2c(O)ccc(O)c2C(=O)c2c(NCCNCCO)ccc(NCCNCCO)c21 [MITOXANTRONE],Not Active
2,CC(C)(C)NC(=O)[C@@H]1CN(Cc2cccnc2)CCN1C[C@@H](O)C[C@@H](Cc1ccccc1)C(=O)N[C@H]1c2ccccc2C[C@H]1O.O,Not Active

# Test system: not listed separately
# Assay: DRUGMATRIX: Atrial Natriuretic Factor (ANF) radioligand binding (ligand: [125I] ANF (rat))
# Assay type: cell membranes, Cavia porcellus, Dunkin-Hartley, Adrenal gland, Membrane
# Settings: Not Active = under 50% inhibition at 10 µM
Compound,IC50,Ki
O=C1c2c(O)ccc(O)c2C(=O)c2c(NCCNCCO)ccc(NCCNCCO)c21 [MITOXANTRONE],Not Active,Not Active
CC(C)(C)NC(=O)[C@@H]1CN(Cc2cccnc2)CCN1C[C@@H](O)C[C@@H](Cc1ccccc1)C(=O)N[C@H]1c2ccccc2C[C@H]1O.O,Not Active,Not Active

# Test system: not listed separately
# Assay: DRUGMATRIX: beta-Lactamase enzyme inhibition (substrate: Nitrocefin)
# Parameters: species or system Bacillus cereus
# Settings: Not Active = under 50% inhibition at 10 µM
Compound,IC50,Ki
O=C1c2c(O)ccc(O)c2C(=O)c2c(NCCNCCO)ccc(NCCNCCO)c21 [MITOXANTRONE],Not Active,Not Active
CC(C)(C)NC(=O)[C@@H]1CN(Cc2cccnc2)CCN1C[C@@H](O)C[C@@H](Cc1ccccc1)C(=O)N[C@H]1c2ccccc2C[C@H]1O.O,Not Active,Not Active

# Test system: not listed separately
# Assay: DRUGMATRIX: Calcium Channel Type L, Dihydropyridine radioligand binding (ligand: [3H] Nitrendipine)
# Assay type: cell membranes, Rattus norvegicus, Wistar, Cerebral cortex, Membrane
# Settings: Not Active = under 50% inhibition at 10 µM
Compound,IC50,Ki
O=C1c2c(O)ccc(O)c2C(=O)c2c(NCCNCCO)ccc(NCCNCCO)c21 [MITOXANTRONE],Not Active,Not Active
CC(C)(C)NC(=O)[C@@H]1CN(Cc2cccnc2)CCN1C[C@@H](O)C[C@@H](Cc1ccccc1)C(=O)N[C@H]1c2ccccc2C[C@H]1O.O,Not Active,Not Active

# Target: 5-hydroxytryptamine receptor 2B (Homo sapiens, UniProt P41595); further: in other assays of this panel Not Active means under 50% inhibition at 10 µM
# Sequence (P41595 whole entry): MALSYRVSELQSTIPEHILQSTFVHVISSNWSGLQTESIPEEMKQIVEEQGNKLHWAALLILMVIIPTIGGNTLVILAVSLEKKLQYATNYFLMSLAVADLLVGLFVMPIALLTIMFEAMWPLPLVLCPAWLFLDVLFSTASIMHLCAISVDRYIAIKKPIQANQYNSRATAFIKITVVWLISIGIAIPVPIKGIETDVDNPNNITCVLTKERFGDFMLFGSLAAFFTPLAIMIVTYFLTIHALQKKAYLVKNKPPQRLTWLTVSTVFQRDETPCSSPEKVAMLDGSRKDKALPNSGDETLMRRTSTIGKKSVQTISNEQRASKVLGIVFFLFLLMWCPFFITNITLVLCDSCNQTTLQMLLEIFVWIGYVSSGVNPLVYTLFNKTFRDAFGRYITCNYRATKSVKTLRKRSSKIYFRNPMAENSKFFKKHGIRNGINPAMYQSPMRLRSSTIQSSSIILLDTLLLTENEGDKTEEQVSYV
# Assay: not given
# Assay type: cell membranes, CHO-K1, Membrane
# Settings: cho-k1
row,Compound,IC50
1,O=C1c2c(O)ccc(O)c2C(=O)c2c(NCCNCCO)ccc(NCCNCCO)c21 [MITOXANTRONE],Not Active
2,CC(C)(C)NC(=O)[C@@H]1CN(Cc2cccnc2)CCN1C[C@@H](O)C[C@@H](Cc1ccccc1)C(=O)N[C@H]1c2ccccc2C[C@H]1O.O,Not Active

# Target: Substance-P receptor (Homo sapiens, UniProt P25103); further: in other assays of this panel Not Active means under 50% inhibition at 10 µM
# Sequence (P25103 whole entry): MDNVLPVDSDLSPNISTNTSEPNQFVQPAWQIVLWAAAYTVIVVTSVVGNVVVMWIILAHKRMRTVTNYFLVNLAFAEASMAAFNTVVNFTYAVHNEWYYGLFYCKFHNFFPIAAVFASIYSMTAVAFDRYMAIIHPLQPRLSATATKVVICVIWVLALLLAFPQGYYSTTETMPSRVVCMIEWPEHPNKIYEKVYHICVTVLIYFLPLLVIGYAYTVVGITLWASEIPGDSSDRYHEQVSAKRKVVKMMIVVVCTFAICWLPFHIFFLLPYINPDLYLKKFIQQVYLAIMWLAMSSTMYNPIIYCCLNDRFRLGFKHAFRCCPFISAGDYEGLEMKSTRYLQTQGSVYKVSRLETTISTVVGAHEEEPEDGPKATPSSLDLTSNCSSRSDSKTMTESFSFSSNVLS
# Assay: not given
# Assay type: cell membranes, CHO, Membrane
# Settings: cho
row,Compound,IC50
1,O=C1c2c(O)ccc(O)c2C(=O)c2c(NCCNCCO)ccc(NCCNCCO)c21 [MITOXANTRONE],Not Active
2,CC(C)(C)NC(=O)[C@@H]1CN(Cc2cccnc2)CCN1C[C@@H](O)C[C@@H](Cc1ccccc1)C(=O)N[C@H]1c2ccccc2C[C@H]1O.O,Not Active

# Target: Vascular endothelial growth factor receptor 1 (Homo sapiens, UniProt P17948); further: in other assays of this panel Not Active means under 50% inhibition at 10 µM
# Sequence (P17948 whole entry): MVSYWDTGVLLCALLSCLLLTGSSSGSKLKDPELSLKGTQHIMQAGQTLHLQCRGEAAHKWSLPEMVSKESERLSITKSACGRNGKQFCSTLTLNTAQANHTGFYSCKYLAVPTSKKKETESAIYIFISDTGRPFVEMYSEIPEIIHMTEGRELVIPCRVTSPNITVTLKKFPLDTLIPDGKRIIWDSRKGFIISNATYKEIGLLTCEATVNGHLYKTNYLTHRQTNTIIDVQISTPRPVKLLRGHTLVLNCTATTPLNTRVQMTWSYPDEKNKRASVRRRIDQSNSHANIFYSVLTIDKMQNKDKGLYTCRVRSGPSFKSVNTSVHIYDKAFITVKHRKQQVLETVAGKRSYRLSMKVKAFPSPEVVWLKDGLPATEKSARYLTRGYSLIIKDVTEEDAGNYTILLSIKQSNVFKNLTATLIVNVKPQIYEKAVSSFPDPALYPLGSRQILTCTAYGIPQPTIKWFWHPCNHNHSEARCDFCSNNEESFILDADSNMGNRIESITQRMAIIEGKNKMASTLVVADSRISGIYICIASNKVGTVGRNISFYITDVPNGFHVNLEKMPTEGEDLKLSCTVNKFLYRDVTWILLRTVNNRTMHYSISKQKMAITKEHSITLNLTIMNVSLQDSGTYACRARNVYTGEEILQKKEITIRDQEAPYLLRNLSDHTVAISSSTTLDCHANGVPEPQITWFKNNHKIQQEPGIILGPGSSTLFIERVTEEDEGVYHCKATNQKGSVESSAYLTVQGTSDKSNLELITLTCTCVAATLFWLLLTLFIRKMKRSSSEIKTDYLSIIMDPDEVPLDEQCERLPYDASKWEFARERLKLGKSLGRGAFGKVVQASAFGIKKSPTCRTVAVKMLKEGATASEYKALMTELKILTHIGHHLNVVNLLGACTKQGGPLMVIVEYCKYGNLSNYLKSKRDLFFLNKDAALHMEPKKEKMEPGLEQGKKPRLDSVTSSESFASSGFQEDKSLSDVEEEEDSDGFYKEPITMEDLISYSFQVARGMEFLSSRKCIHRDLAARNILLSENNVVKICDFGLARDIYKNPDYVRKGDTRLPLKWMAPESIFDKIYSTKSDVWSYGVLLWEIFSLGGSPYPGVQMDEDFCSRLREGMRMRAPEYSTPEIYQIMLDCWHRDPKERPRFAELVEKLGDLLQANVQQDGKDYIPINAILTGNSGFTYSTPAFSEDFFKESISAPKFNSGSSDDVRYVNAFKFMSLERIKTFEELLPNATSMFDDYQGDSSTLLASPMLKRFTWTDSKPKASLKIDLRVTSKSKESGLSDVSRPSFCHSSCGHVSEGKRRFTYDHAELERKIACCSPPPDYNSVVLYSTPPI
# Assay: not given
# Assay type: cell-based
# Settings: huvec
row,Compound,IC50
1,O=C1c2c(O)ccc(O)c2C(=O)c2c(NCCNCCO)ccc(NCCNCCO)c21 [MITOXANTRONE],Not Active
2,CC(C)(C)NC(=O)[C@@H]1CN(Cc2cccnc2)CCN1C[C@@H](O)C[C@@H](Cc1ccccc1)C(=O)N[C@H]1c2ccccc2C[C@H]1O.O,Not Active

# Target: C-C chemokine receptor type 5 (Homo sapiens, UniProt P51681); further: in other assays of this panel Not Active means under 50% inhibition at 10 µM
# Sequence (P51681 whole entry): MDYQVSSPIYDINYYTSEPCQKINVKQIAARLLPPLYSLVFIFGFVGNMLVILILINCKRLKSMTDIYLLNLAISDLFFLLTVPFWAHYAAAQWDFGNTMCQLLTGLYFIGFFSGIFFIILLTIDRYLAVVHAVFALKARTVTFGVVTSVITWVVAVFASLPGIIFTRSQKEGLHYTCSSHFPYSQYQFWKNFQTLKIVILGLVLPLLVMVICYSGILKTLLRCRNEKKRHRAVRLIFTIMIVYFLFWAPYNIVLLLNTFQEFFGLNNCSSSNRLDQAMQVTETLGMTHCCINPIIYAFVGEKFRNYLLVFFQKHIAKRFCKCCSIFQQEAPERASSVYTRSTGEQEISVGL
# Assay: not given
# Assay type: cell membranes, Membrane
# Settings: hek293
row,Compound,IC50
1,O=C1c2c(O)ccc(O)c2C(=O)c2c(NCCNCCO)ccc(NCCNCCO)c21 [MITOXANTRONE],Not Active
2,CC(C)(C)NC(=O)[C@@H]1CN(Cc2cccnc2)CCN1C[C@@H](O)C[C@@H](Cc1ccccc1)C(=O)N[C@H]1c2ccccc2C[C@H]1O.O,Not Active

# Target: T2, Cholecystokinin receptor type A (Homo sapiens, UniProt P32238); further: in other assays of this panel Not Active means under 50% inhibition at 10 µM
# T2 sequence (P32238 whole entry): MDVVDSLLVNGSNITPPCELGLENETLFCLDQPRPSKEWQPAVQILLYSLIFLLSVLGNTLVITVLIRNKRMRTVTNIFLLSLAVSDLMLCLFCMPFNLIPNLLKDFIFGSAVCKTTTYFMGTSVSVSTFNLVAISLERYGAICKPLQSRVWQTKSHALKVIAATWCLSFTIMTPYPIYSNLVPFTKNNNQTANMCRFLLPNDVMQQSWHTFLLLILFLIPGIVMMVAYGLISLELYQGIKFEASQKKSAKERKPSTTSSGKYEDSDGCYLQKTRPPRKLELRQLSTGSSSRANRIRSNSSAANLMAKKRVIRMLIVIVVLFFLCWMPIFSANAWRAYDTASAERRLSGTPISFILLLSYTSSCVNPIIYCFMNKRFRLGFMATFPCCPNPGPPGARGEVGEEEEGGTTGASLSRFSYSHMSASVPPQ
# Assay: not given
# Assay type: cell membranes, Membrane
# Settings: 1321-n1
row,Compound,IC50
1,O=C1c2c(O)ccc(O)c2C(=O)c2c(NCCNCCO)ccc(NCCNCCO)c21 [MITOXANTRONE],Not Active
2,CC(C)(C)NC(=O)[C@@H]1CN(Cc2cccnc2)CCN1C[C@@H](O)C[C@@H](Cc1ccccc1)C(=O)N[C@H]1c2ccccc2C[C@H]1O.O,Not Active

# Target: D(1A) dopamine receptor (Homo sapiens, UniProt P21728)
# Sequence (P21728 whole entry): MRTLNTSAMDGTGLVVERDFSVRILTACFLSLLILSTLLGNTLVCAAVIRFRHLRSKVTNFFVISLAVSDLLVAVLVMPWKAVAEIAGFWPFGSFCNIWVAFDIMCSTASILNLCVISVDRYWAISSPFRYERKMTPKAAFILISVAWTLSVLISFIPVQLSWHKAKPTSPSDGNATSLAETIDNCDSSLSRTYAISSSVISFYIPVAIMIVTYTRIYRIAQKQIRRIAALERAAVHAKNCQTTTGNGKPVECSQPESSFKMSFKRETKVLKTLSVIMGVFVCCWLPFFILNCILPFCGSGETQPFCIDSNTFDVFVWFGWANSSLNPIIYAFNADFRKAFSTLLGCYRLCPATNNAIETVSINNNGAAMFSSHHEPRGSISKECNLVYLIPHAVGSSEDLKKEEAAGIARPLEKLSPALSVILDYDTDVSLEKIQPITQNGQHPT
# Assay: DRUGMATRIX: Dopamine D1 radioligand binding (ligand: [3H] SCH-23390)
# Assay type: cell membranes, CHO, Membrane
# Settings: cho; Not Active = under 50% inhibition at 10 µM
row,Compound,IC50
1,O=C1c2c(O)ccc(O)c2C(=O)c2c(NCCNCCO)ccc(NCCNCCO)c21 [MITOXANTRONE],Not Active
2,CC(C)(C)NC(=O)[C@@H]1CN(Cc2cccnc2)CCN1C[C@@H](O)C[C@@H](Cc1ccccc1)C(=O)N[C@H]1c2ccccc2C[C@H]1O.O,Not Active

# Target: D(3) dopamine receptor (Homo sapiens, UniProt P35462)
# Sequence (P35462 whole entry): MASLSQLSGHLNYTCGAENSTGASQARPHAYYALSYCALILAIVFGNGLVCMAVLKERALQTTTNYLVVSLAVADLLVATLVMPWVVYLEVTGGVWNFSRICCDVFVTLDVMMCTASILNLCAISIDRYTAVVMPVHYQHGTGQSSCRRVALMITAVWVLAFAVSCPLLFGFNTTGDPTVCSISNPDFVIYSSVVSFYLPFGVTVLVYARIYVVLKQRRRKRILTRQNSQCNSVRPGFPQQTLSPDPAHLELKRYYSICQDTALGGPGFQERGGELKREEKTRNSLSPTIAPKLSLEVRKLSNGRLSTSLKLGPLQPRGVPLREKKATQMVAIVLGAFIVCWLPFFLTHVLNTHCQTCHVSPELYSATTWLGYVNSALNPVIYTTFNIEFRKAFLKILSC
# Assay: DRUGMATRIX: Dopamine D3 radioligand binding (ligand: [3H] Spiperone)
# Assay type: cell membranes, CHO, Membrane
# Settings: cho
row,Compound,IC50
1,O=C1c2c(O)ccc(O)c2C(=O)c2c(NCCNCCO)ccc(NCCNCCO)c21 [MITOXANTRONE],Not Active
2,CC(C)(C)NC(=O)[C@@H]1CN(Cc2cccnc2)CCN1C[C@@H](O)C[C@@H](Cc1ccccc1)C(=O)N[C@H]1c2ccccc2C[C@H]1O.O,Not Active

# Test system: not listed separately
# Assay: DRUGMATRIX: Glutamate, AMPA radioligand binding (ligand: [3H] AMPA)
# Assay type: cell membranes, Rattus norvegicus, Wistar, Cerebral cortex, Membrane
# Settings: Not Active = under 50% inhibition at 10 µM
Compound,IC50,Ki
O=C1c2c(O)ccc(O)c2C(=O)c2c(NCCNCCO)ccc(NCCNCCO)c21 [MITOXANTRONE],Not Active,Not Active
CC(C)(C)NC(=O)[C@@H]1CN(Cc2cccnc2)CCN1C[C@@H](O)C[C@@H](Cc1ccccc1)C(=O)N[C@H]1c2ccccc2C[C@H]1O.O,Not Active,Not Active

# Target: T3, Polyunsaturated fatty acid lipoxygenase ALOX15 (Oryctolagus cuniculus, UniProt P12530)
# T3 sequence (P12530 whole entry): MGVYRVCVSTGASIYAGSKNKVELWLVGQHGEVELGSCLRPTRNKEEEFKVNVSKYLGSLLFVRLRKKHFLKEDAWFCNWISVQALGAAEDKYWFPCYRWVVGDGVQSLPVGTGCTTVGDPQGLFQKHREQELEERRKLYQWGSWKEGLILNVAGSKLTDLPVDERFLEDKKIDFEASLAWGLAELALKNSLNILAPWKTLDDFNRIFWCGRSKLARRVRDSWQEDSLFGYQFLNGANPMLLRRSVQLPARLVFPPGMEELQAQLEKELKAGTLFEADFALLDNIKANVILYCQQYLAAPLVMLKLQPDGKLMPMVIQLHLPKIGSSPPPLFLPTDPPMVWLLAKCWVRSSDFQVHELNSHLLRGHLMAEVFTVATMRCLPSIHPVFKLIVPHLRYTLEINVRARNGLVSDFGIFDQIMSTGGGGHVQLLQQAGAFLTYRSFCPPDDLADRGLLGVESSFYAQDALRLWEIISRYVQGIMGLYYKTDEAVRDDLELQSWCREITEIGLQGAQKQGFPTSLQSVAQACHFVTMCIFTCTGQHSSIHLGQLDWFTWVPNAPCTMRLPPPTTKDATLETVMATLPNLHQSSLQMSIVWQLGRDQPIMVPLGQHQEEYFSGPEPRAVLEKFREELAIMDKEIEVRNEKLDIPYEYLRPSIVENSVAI
# Assay: biochemical
# Assay type: tissue-based, Reticulocytes
# Settings: read-out: IC50
row,Compound,pIC50
1,O=C1c2c(O)ccc(O)c2C(=O)c2c(NCCNCCO)ccc(NCCNCCO)c21 [MITOXANTRONE],5.75

# Same assay, conditions: reticulocytes
row,Compound,IC50
1,CC(C)(C)NC(=O)[C@@H]1CN(Cc2cccnc2)CCN1C[C@@H](O)C[C@@H](Cc1ccccc1)C(=O)N[C@H]1c2ccccc2C[C@H]1O.O,Not Active

# Target: Mitogen-activated protein kinase 14 (Homo sapiens, UniProt Q16539)
# Sequence (Q16539 whole entry): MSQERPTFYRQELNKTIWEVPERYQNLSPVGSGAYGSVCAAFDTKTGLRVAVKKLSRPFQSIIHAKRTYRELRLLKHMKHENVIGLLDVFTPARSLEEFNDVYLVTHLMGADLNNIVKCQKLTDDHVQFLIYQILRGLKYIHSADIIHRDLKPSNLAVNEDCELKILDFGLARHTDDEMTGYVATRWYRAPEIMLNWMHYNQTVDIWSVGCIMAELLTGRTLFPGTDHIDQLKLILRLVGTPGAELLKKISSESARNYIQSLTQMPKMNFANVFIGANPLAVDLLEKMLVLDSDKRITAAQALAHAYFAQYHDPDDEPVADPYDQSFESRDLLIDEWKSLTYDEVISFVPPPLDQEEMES
# Assay: not given
# Parameters: species or system Escherichia coli
# Settings: not given
row,Compound,IC50
1,O=C1c2c(O)ccc(O)c2C(=O)c2c(NCCNCCO)ccc(NCCNCCO)c21 [MITOXANTRONE],Not Active
2,CC(C)(C)NC(=O)[C@@H]1CN(Cc2cccnc2)CCN1C[C@@H](O)C[C@@H](Cc1ccccc1)C(=O)N[C@H]1c2ccccc2C[C@H]1O.O,Not Active

# Target: T4, Adenosine receptor A1 (Homo sapiens, UniProt P30542)
# T4 sequence (P30542 whole entry): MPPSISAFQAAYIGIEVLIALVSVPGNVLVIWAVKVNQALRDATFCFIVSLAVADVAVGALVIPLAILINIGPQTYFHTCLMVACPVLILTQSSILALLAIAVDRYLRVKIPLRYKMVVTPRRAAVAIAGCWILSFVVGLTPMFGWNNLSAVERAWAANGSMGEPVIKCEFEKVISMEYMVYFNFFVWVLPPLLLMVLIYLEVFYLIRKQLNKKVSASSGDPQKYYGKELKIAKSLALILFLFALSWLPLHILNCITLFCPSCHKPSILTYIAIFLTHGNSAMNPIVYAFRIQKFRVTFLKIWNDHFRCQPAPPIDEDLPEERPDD
# Assay: not given
# Assay type: cell membranes, CHO, Membrane
# Settings: cho
row,Compound,IC50
1,O=C1c2c(O)ccc(O)c2C(=O)c2c(NCCNCCO)ccc(NCCNCCO)c21 [MITOXANTRONE],Not Active
2,CC(C)(C)NC(=O)[C@@H]1CN(Cc2cccnc2)CCN1C[C@@H](O)C[C@@H](Cc1ccccc1)C(=O)N[C@H]1c2ccccc2C[C@H]1O.O,Not Active
